Key:
human CD38 = target: T1, human CD38 (Homo sapiens, UniProt P28907); experiment: human recombinant CD38 enzyme assay (hydrolysis of NAD+); assay type: biochemical; conditions: human recombinant CD38, 0.4 nM enzyme, 62.5 μM NAD+; read-out: hCD38 BioChem IC50
T1 sequence (P28907 1-300): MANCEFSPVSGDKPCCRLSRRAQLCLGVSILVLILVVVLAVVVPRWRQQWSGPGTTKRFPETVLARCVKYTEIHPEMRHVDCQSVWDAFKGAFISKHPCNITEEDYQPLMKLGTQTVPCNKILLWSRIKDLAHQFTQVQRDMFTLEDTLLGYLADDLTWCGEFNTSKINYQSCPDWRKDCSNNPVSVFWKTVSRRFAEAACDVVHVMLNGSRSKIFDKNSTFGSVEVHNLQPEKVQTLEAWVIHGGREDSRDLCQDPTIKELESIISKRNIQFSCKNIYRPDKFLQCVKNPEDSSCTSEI
Procedure: (§1) Compounds described herein were assayed for their ability to inhibit the hydrolysis of NAD+ by the protein CD38. The human and mouse recombinant enzyme assays measure the inhibition of the enzyme activity by compounds using recombinant enzymes and substrates in a buffered cell-free system. The assay conditions closely mimic cellular environments. Dose responses were measured using an assay to detect the hydrolysis of NAD+. All experiments were performed in the 384-well format. […] Enzyme reactions were initiated with the addition of 10 μL of a solution containing NAD+ substrate. Subsequent detection of remaining NAD+ was determined by first converting NAD+ to NADH using alcohol dehydrogenase, then using the resulting NADH to reduce resazurine to the fluorescent product resorufin. […] Following an incubation of 60 min at ambient temperature, 10 μL of 120 mM ethanol+20 U/ml alcohol dehydrogenase+30 mM semicarbazide+0.03 mM CD38 inhibitor in 50 mM HEPES, pH 7.5, 0.2 mg/ml BSA, was added and incubated at ambient temperature for 15 min. Then 10 μl 0.32 mM NaOH was added to stop the ADH reaction (plates incubated at ambient temperature for 15 min), followed by 30 μL of 0.05 mM resazurine+1000 mU/ml Diaphorase in 200 mM Tris-HCl, pH 7.7 for 15 min at ambient temperature. The plates were read for fluorescence (Excitation/Emission=540 nm/590 nm) using an EnVision plate reader. […] Note that, in Table 4, the “Compound No” corresponds to the compound numbers in Table 1.

mouse CD38 = target: T2, mouse CD38 (Mus musculus, UniProt P56528); experiment: mouse recombinant CD38 enzyme assay (hydrolysis of NAD+); assay type: biochemical; conditions: read-out: mCD38 BioChem IC50
T2 sequence (P56528 1-304): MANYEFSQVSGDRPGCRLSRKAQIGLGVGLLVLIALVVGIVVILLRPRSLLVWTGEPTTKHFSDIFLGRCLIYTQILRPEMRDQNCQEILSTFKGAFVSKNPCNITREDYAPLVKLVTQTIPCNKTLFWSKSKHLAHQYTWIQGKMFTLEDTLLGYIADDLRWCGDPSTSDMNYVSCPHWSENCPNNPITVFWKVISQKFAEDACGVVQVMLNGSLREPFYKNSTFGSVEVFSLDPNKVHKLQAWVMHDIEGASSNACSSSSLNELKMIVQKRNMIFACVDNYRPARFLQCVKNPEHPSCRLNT
Procedure: as §1

`Cn1cncc1-c1nc(C(=O)N[C@H]2CC[C@H](OCC(F)(F)F)CC2)cc(C2CCC(F)(F)CC2)n1` [Compound 339, 6-(4,4-difluorocyclohexyl)-2-(1-methyl-1H-imidazol-5-yl)-N-((1r,4r)-4-(2,2,2-trifluoroethoxy)cyclohexyl)pyrimidine-4-carboxamide] showed an IC50 (human CD38) of 17.3 nM and an IC50 (mouse CD38) of 2 nM.

With `O=C(N[C@H]1CC[C@H](O)C1)c1nccc(-n2ccnc2)n1` [Compound 304, N-((1S,3S)-3-hydroxycyclopentyl)-4-(1H-imidazol-1-yl)pyrimidine-2-carboxamide] the IC50 (human CD38) was 1270 nM and the IC50 (mouse CD38) was 244 nM.

`O=C(N[C@H]1CC[C@H](CO)CC1)c1cc(C2CC2)nc(-c2cncs2)n1` [Compound 141, 6-cyclopropyl-N-((1r,4r)-4-(hydroxymethyl)cyclohexyl)-2-(thiazol-5-yl)pyrimidine-4-carboxamide] gave an IC50 (human CD38) of 761 nM and an IC50 (mouse CD38) of 28 nM.

`Cn1cncc1-c1ccnc(C(=O)N[C@@H]2CC[C@@H](O)C2)n1` [Compound 302, N-((1R,3R)-3-hydroxycyclopentyl)-4-(1-methyl-1H-imidazol-5-yl)pyrimidine-2-carboxamide] showed an IC50 (human CD38) of 369 nM and an IC50 (mouse CD38) of 118 nM.

Compound `Cc1cnc(-c2cncn2C)nc1C(=O)N[C@H]1CC[C@H](O)CC1` [Compound 321, 5-Methyl-2-(3-methylimidazol-4-yl)-N-[(1r,4r)-4-hydroxycyclohexyl]pyrimidine-4-carboxamide] has an IC50 (human CD38) of 133 nM and an IC50 (mouse CD38) of 32.2 nM.

In the case of `Cn1cncc1-c1ccnc(C(=O)NC2CCC(C)(C)OC2)n1` (centres unmarked) [Compound 278, N-(6,6-dimethyltetrahydro-2H-pyran-3-yl)-4-(1-methyl-1H-imidazol-5-yl)pyrimidine-2-carboxamide], the IC50 (human CD38) is reported as 490 nM and the IC50 (mouse CD38) is reported as 67.9 nM.

`O=C(Nc1ccc(C(F)(F)F)nc1)c1cccc(-c2cncs2)n1` [Compound 50, 6-(thiazol-5-yl)-N-(6-(trifluoromethyl)pyridin-3-yl)picolinamide] gave an IC50 (human CD38) of 1440 nM and an IC50 (mouse CD38) of 855 nM.

With `Cn1cncc1-c1ccnc(C(=O)N[C@H]2CC[C@H](OC(F)(F)F)CC2)n1` [Compound 317, 4-(1-methyl-1H-imidazol-5-yl)-N-((1r,4r)-4-(trifluoromethoxy)cyclohexyl)pyrimidine-2-carboxamide] the IC50 (human CD38) was 79.1 nM and the IC50 (mouse CD38) was 41.7 nM.

`COCCO[C@H]1CC[C@H](NC(=O)c2cc(C3CCOCC3)nc(-c3cncn3C)n2)C1` [Compound 353, N-((1S,3S)-3-(2-methoxyethoxy)cyclopentyl)-2-(1-methyl-1H-imidazol-5-yl)-6-(tetrahydro-2H-pyran-4-yl)pyrimidine-4-carboxamide] was tested, and the IC50 (human CD38) was 20.8 nM and the IC50 (mouse CD38) was 4.2 nM.

For `O=C(N[C@H]1C[C@@H](c2ccccc2)C1)c1nccc(-n2ccnc2)n1` [Compound 212, 4-(1H-imidazol-1-yl)-N-((1s,3s)-3-phenylcyclobutyl)pyrimidine-2-carboxamide], the IC50 (human CD38) was 833 nM and the IC50 (mouse CD38) was 105 nM.

With `Cn1cncc1-c1cc(C(F)F)nc(C(=O)N[C@H]2CC[C@H](O)CC2)n1` [Compound 347, 4-(difluoromethyl)-N-((1r,4r)-4-hydroxycyclohexyl)-6-(1-methyl-1H-imidazol-5-yl)pyrimidine-2-carboxamide] the IC50 (human CD38) was 81.9 nM and the IC50 (mouse CD38) was 6.2 nM.

In the case of `O=C(NC1CCC(F)(F)CC1)c1cc(C2CCC2)nc(-n2ccnc2)n1` [Compound 185, 6-cyclobutyl-N-(4,4-difluorocyclohexyl)-2-(1H-imidazol-1-yl)pyrimidine-4-carboxamide], the IC50 (human CD38) is reported as 30 nM and the IC50 (mouse CD38) is reported as 14 nM.

For `CO[C@H]1C[C@H](NC(=O)c2nccc(-n3ccnc3)n2)C1` [Compound 313, 4-(1H-imidazol-1-yl)-N-((1r,3r)-3-methoxycyclobutyl)pyrimidine-2-carboxamide], the IC50 (human CD38) was 761 nM and the IC50 (mouse CD38) was 198 nM.

Compound `CO[C@H]1CC[C@H](NC(=O)c2cc(C3(O)CCC(F)(F)CC3)nc(-c3cncn3C)n2)CC1` [Compound 331, 6-(4,4-difluoro-1-hydroxycyclohexyl)-N-((1r,4r)-4-methoxycyclohexyl)-2-(1-methyl-1H-imidazol-5-yl)pyrimidine-4-carboxamide] has an IC50 (human CD38) of 26 nM and an IC50 (mouse CD38) of 4.7 nM.

In the case of `CO[C@H]1CC[C@H](NC(=O)c2nc(-c3cncn3C)ncc2F)CC1` [Compound 333, 5-fluoro-N-((1r,4r)-4-methoxycyclohexyl)-2-(1-methyl-1H-imidazol-5-yl)pyrimidine-4-carboxamide], the IC50 (human CD38) is reported as 12.8 nM and the IC50 (mouse CD38) is reported as 3.4 nM.

In the case of `O=C(N[C@H]1C[C@@H](c2ccnc(C(F)(F)F)c2)C1)c1nccc(-n2ccnc2)n1` [Compound 271, 4-(1H-imidazol-1-yl)-N-((1s,3s)-3-(2-(trifluoromethyl)pyridin-4-yl)cyclobutyl)pyrimidine-2-carboxamide], the IC50 (human CD38) is reported as 2150 nM and the IC50 (mouse CD38) is reported as 415 nM.

With `CO[C@H]1CC[C@H](NC(=O)c2nc(-c3cncn3C)ncc2Cl)CC1` [Compound 329, 5-chloro-N-((1r,4r)-4-methoxycyclohexyl)-2-(1-methyl-1H-imidazol-5-yl)pyrimidine-4-carboxamide] the IC50 (human CD38) was 34 nM and the IC50 (mouse CD38) was 10.7 nM.

For `O=C(NC1CCS(=O)(=O)CC1)c1cc(C2CC2)nc(-c2cncs2)n1` [Compound 142, 6-cyclopropyl-N-(1,1-dioxidotetrahydro-2H-thiopyran-4-yl)-2-(thiazol-5-yl)pyrimidine-4-carboxamide], the IC50 (human CD38) was 1720 nM and the IC50 (mouse CD38) was 161 nM.

Compound `O=C(N[C@H]1CC[C@H](CO)CC1)c1ccnc(-c2cncs2)n1` [Compound 140, N-((1r,4r)-4-(hydroxymethyl)cyclohexyl)-2-(thiazol-5-yl)pyrimidine-4-carboxamide] has an IC50 (human CD38) of 747 nM and an IC50 (mouse CD38) of 117 nM.

`Cn1cncc1-c1ccnc(C(=O)NC2CC3(COC3)C2)n1` [Compound 306, 4-(1-methyl-1H-imidazol-5-yl)-N-(2-oxaspiro[3.3]heptan-6-yl)pyrimidine-2-carboxamide] showed an IC50 (human CD38) of 357 nM and an IC50 (mouse CD38) of 81.7 nM.

Compound `COC[C@H]1CC[C@H](NC(=O)c2ccnc(-c3cncs3)n2)CC1` [Compound 139, N-((1r,4r)-4-(methoxymethyl)cyclohexyl)-2-(thiazol-5-yl)pyrimidine-4-carboxamide] has an IC50 (human CD38) of 1010 nM and an IC50 (mouse CD38) of 232 nM.

In the case of `Cn1cncc1-c1nc(C(=O)N[C@H]2CC[C@H](C(F)F)CC2)cc(C(C)(C)O)n1` [Compound 177, N-((1r,4r)-4-(difluoromethyl)cyclohexyl)-6-(2-hydroxypropan-2-yl)-2-(1-methyl-1H-imidazol-5-yl)pyrimidine-4-carboxamide], the IC50 (human CD38) is reported as 35 nM and the IC50 (mouse CD38) is reported as 9 nM.

In the case of `COCCO[C@H]1CC[C@H](NC(=O)c2nccc(-c3cncn3C)n2)C1` [Compound 344, N-((1S,3S)-3-(2-methoxyethoxy)cyclopentyl)-4-(1-methyl-1H-imidazol-5-yl)pyrimidine-2-carboxamide], the IC50 (human CD38) is reported as 417 nM and the IC50 (mouse CD38) is reported as 46.9 nM.

Compound `Cn1cncc1-c1ncc(F)c(C(=O)N[C@H]2CC[C@H](OC(F)F)CC2)n1` [Compound 341, N-((1r,4r)-4-(difluoromethoxy)cyclohexyl)-5-fluoro-2-(1-methyl-1H-imidazol-5-yl)pyrimidine-4-carboxamide] has an IC50 (human CD38) of 8.7 nM and an IC50 (mouse CD38) of 3.8 nM.

Work on `CC(C)O[C@H]1C[C@H](NC(=O)c2nccc(-c3cncn3C)n2)C1` [Compound 320, N-((1r,3r)-3-isopropoxycyclobutyl)-4-(1-methyl-1H-imidazol-5-yl)pyrimidine-2-carboxamide] yielded an IC50 (human CD38) of 949 nM and an IC50 (mouse CD38) of 218 nM.

— patent US20230116972A1, “CD38 MODULATORS AND METHODS OF USE THEREOF” (Cytokinetics, Inc., priority 2021, published 2023)
